Patent publication US8071645B2, “Systems and methods for treating human inflammatory and proliferative diseases and wounds, with fatty acid metabolism inhibitors and/or glycolytic inhibitors” (The Regents of the University of Colorado, priority 2003, dated 2011)

Columns and labels:
HL60 MDR tumor = HL60 MDR tumor implanted in nude mice, tumor volume; format: in vivo
From the text: Tumor implantation. Mice were purchased from the Animal Production Program of National Cancer Institute, Frederick, Md. The animals used were Athymic Ncr-nu/nu (strain code 01B74). HL60 MDR cells were harvested and reconstituted at 1 million cells per 100 microliters of phosphate buffered saline. One million tumor cells per injection site were implanted subcutaneously on two sites of the animal's back. Treatments began at exactly seven days post tumor implantation. Tumor size/volume was monitored twice weekly using measurement calipers, with the formula Tumor Volume=π×(short diameter)^2×(long diameter)/6.
Mice experiments with fatty acid metabolism and glycolytic inhibitors. Fatty acid metabolism inhibitors were exemplified by etomoxir at 200 micrograms/day. Glycolytic inhibitors were exemplified by 2-deoxy-D-glucose at 2.5 mM in 100 microliters daily. The combination was administered daily, etomoxir at 200 micrograms and 2-deoxy-D-glucose at 2.5 mM in 100 microliters. All drugs were administered intra-peritoneally. 5-Fluoro-uracil, at 20 mg per kilogram mouse, was injected intra-peritoneally once a week
HL60 MDR human leukemia cells were cultured and implanted in nude mice as described above under “Materials and Methods”. The mice were given 200 ug of Etomoxir, 2.5 mM 2-Deoxy-D-glucose, or both 200 ug of Etomoxir and 2.5 mM 2-Deoxy-D-glucose given daily by IP injection. Treatment began exactly one week after tumor implantation.

HL60 MDR cells [1] = assay: % death of HL60 MDR cells by flow cytometry; format: cell-based, human; details: for HL60 MDR % Death: Table 1, 25 ug/mL Cerulenin
Description: (§1) Dot plots as a function of live versus dead cells. The cells were cultured at a concentration of 0.5 to 1 million cells per ml. Cells were untreated or treated with etomoxir or 2-deoxy-D-glucose at a concentration of 2.5 mM at the indicated concentrations for either 24 or 48 hours. In additional experiments, under each of these culture conditions, the cells were cultured for 24 hours at which time point, polyclonal anti-UCP-2 was added at a 1:1000 dilution of stock provided by Alpha Diagnostics, San Antonio, Tex. Cells were harvested and analyzed by flow cytometry. Each dot on the dot plots of FIGS. 1, 3, 5, 7, 9, and 11 represents one cell. Five thousand cells were assessed for forward scatter (FS), as a function of cell size, versus side scatter (SS), as a function of cellular granularity. The upper ellipse represents live cells by these criterion and the lower ellipse in each dot plot represents the dead cells.
(§2) Statistical Analysis, Percents, and Geometric Mean Values Percents. Gating is a tool provided by Cell Quest software and allows for the analysis of a certain population of cells. Gating around both the live and dead cell populations gave a percent of the cell numbers that was in each population. After the gates were drawn, a percent value of dead cells was calculated by taking the number of dead cells divided by the number of total cells and multiplying by one hundred.
(§3) This example illustrates an embodiment of the invention, where multi-drug resistant cancer cells were exposed to compositions of the invention. Analysis of the cells was performed using flow cytometry. The flow cytometry experiments were performed as follows. The cells were harvested, counted, and resuspended as described above. For DNA staining, the cells were washed and resuspended in ice-cold PBS and fixed by the dropwise addition of 95% ethanol. The cells were then incubated for 30 minutes on ice, washed, and resuspended in PBS containing 1% formaldehyde and 0.01% Tween. The cells were incubated with 50 units of DNAse and washed with PBS containing 5% DNAse. The cells were then incubated with anti DNA Fab (166, kind gift of Dr. Susan Wallace, University of Vermont), then washed and stained with a fluorescein conjugated second step anti-mouse immunoglobulin. The cells were then washed and resuspended in PBS/3% BSA/1% formaldehyde. The cells were stained for intracellular H2O2 using 6-carboxy-2′,7′-dichlorodihydrofluorescein diacetate (DCF-DA, Molecular Probes, Eugene, Oreg.). The cells were incubated with 1 mM DCF-DA for 20 minutes, washed twice in PBS containing 5% fetal calf serum and analyzed using flow cytometry. The mitochondrial membrane potential was assessed using MitoTracker Red (CM-H2XROS, Molecular Probes, Eugene, Oreg.). The cells were resuspended in warm (37° C.) PBS containing a final concentration of 0.5 micromolar of dye. The cells were then incubated for 30 minutes, pelleted, and resuspended in prewarmed medium for analysis. The data was acquired on a Coulter Elite Epics or Excel flow cytometer (Coulter, Hialeah, Fla.) and analyzed with CellQuest software, (Becton Dickinson, San Jose, Calif.). […] Each sample population was classified for cell size (forward scatter) and complexity (side scatter), gated on a population of interest and evaluated using 40,000 cells. Each figure describing flow cytometric data represents one of at least four replicate experiments.
All cell lines in this example were cultured in RPMI 1640 culture medium. The medium was supplemented with 5% fetal bovine serum (“FBS”), 2 mM L-Glutamine, 500 units/mL pennicillin/500 micrograms/mL of streptomycin, 10 mM HEPES Buffer, 10^−5 M 2-mercaptoethanol (“2-ME”), 1 mM MEM Sodium Pyruvate, and 0.04 micrograms/mL of Gentamicin (All reagents from Gibco BRL). The cells were maintained at 37° C. in a humidified atmosphere under 5% CO2 in air using standard cell culture techniques known to those of ordinary skill in the art. […]

[2] = tested on: RD cells (rhabdomyosarcoma cells); assay: percent death of RD cells by flow cytometry; format: cell-based
Description: as §1, §2
Referring to FIGS. 29 and 30, RD cells (rhabdomyosarcoma cells—not drug resistant), cultured as described above under “Materials and Methods” were untreated or treated with etomoxir, with 2-deoxy-D-glucose, or with a combination of etomoxir and 2-deoxy-D-glucose, at concentrations indicated in FIG. 29 for 24 hours. Cells were harvested and analyzed by flow cytometry. […] The percent of cell deaths for RD cells after 24 hours was: (a) 31% when untreated, (b) 57% when treated with etomoxir alone, (c) 46% when treated with 2-deoxy-D-glucose alone, and (d) 66% when treated with the combination of etomoxir and 2-deoxy-D-glucose.
Referring to FIGS. 33 and 34, RD cells, cultured as described in Example 22, were untreated or treated with etomoxir, with 2-deoxy-D-glucose, or with a combination of etomoxir and 2-deoxy-D-glucose, at concentrations indicated in FIG. 33 for 48 hours. Cells were harvested and analyzed by flow cytometry. […] The percent of cell deaths for RD cells after 48 hours was: (a) 36% when untreated, (b) 64% when treated with etomoxir alone, (c) 63% when treated with 2-deoxy-D-glucose alone, and (d) 68% when treated with the combination of etomoxir and 2-deoxy-D-glucose.

HL60 MDR cells [3] = assay: microscopy images of HL60 MDR cells treated with cerulenin; format: cell-based, human; details: FIGS. 4E and 4F
From the text: (§4) In FIG. 4, microscopy images of HL60 and HL60 MDR (“multi-drug resistant”) cells treated with cerulenin (“Treated”) and not treated with cerulenin (“No Stn”) are shown.

HL60 cells [4] = assay: % death of HL60 cells by flow cytometry; format: cell-based, human; details: Table 1, 25 ug/mL Cerulenin
Description: as §2
(§5) This example illustrates an embodiment of the invention, where multi-drug resistant cancer cells were exposed to compositions of the invention. Analysis of the cells was performed using flow cytometry. The flow cytometry experiments were performed as follows. The cells were harvested, counted, and resuspended as described above. […] The cells were incubated with 1 mM DCF-DA for 20 minutes, washed twice in PBS containing 5% fetal calf serum and analyzed using flow cytometry. The mitochondrial membrane potential was assessed using MitoTracker Red (CM-H2XROS, Molecular Probes, Eugene, Oreg.). […] The data was acquired on a Coulter Elite Epics or Excel flow cytometer (Coulter, Hialeah, Fla.) and analyzed with CellQuest software, (Becton Dickinson, San Jose, Calif.). […] Each sample population was classified for cell size (forward scatter) and complexity (side scatter), gated on a population of interest and evaluated using 40,000 cells. […]

L1210 cells = assay: % death of L1210 cells by flow cytometry; format: cell-based; details: Table 2; 25 ug/mL Cerulenin; 7.0 Hours
Description: as §2, §5

L1210 DDP cells = assay: % death of L1210 DDP cells by flow cytometry; format: cell-based; details: for L1210 DDP % Death: Table 2, 25 ug/mL Cerulenin
Description: as §2
as §5, with “above. For DNA staining, the cells were washed and resuspended in ice-cold PBS and fixed by the dropwise addition of 95% ethanol. The cells were then incubated for 30 minutes on ice, washed, and resuspended in PBS containing 1% formaldehyde and 0.01% Tween. The cells were incubated with 50 units of DNAse and washed with PBS containing 5% DNAse.” for “above.”
(§6) The flow cytometry experiments were performed as follows. Once the samples were prepared and transferred into flow cytometric tubes, the samples were analyzed on a Becton/Dickinson Flow Cytometer. […] Statistical analysis, percents, and geometric mean values percents were calculated as described above.

HL60 cells [5] = assay: microscopy images of HL60 cells treated with cerulenin; format: cell-based, human; details: FIG. 4C
From the text: as §4

B16F1 melanoma cells [6] = assay: B16F1 melanoma cells exposed to cerulenin, then injected into male mice; format: in vivo
Description: Highly carcinogenic B16F1 melanoma cells were either exposed (“treated”) or not exposed to cerulenin, then injected into male mice.
Day 0 @2:45 pm injected with B16F1 10^6 cells in PBS, Treatment w/25 ug/ml cerulenin 5.0 hrs
Day 0 injected w/B16F1 10^6 cells in PBS, Treatment w/25 ug/ml cerulenin 5.0 h
Day 0 @2:45 pm injected w/B16F1 (10^6 cells in PBS) Treatment w/25 ug/ml cerulenin 5 h

B16F1 melanoma cells [7] = assay: % death of B16F1 cells by flow cytometry; format: cell-based
Description: as §2, §3
All cell lines in this example were cultured in RPMI 1640 culture medium. The medium was supplemented with 5% fetal bovine serum (“FBS”), 2 mM L-Glutamine, 500 units/mL pennicillin/500 micrograms/mL of streptomycin, 10 mM HEPES Buffer, 10^−5 M 2-mercaptoethanol (“2-ME”), 1 mM MEM Sodium Pyruvate, and 0.04 micrograms/mL of Gentamicin (All reagents from Gibco BRL). The cells were maintained at 37° C. in a humidified atmosphere under 5% CO2 in air using standard cell culture techniques known to those of ordinary skill in the art.
as §6, with “Cytometer. For antibodies that were PE conjugated and for the MitoTracker Red experiments, a program for red-colored fluorochromes was utilized.” for “Cytometer.”

O=CC[C@@H](O)[C@H](O)[C@H](O)CO [2-deoxy-D-glucose]
tumor growth versus control (HL60 MDR tumor; 21 day period, single agent): increase in tumor growth
tumor volume, Day 7 (HL60 MDR tumor; Day 7 after implantation (start of treatment), 200 ug Etomoxir and/or 2.5 mM 2-Deoxy-D-glucose daily IP): 35 mm^3
tumor volume, Day 9 (HL60 MDR tumor; Day 9, 200 ug Etomoxir and/or 2.5 mM 2-Deoxy-D-glucose daily IP): 51.56 mm^3
tumor volume, Day 15 (HL60 MDR tumor; Day 15, 200 ug Etomoxir and/or 2.5 mM 2-Deoxy-D-glucose daily IP): 158.55 mm^3
tumor volume, Day 21 (HL60 MDR tumor; Day 21, 200 ug Etomoxir and/or 2.5 mM 2-Deoxy-D-glucose daily IP): 1,181.61 mm^3
percent of cell deaths (HL60 MDR cells [1]; HL60 MDR, 24 hours, 2-deoxy-D-glucose at 2.5 mM, etomoxir as in FIG. 27): 16%
percent of cell deaths (HL60 MDR cells [1]; HL60 MDR, 48 hours, concentrations as in FIG. 31): 38%
percent of cell deaths ([2]; 24 hours, concentrations as in FIG. 29): 46%
percent of cell deaths ([2]; 48 hours, concentrations as in FIG. 33): 63%

C/C=C/C/C=C/CCC(=O)[C@H]1O[C@H]1C(N)=O [Cerulenin, cerulenin]
cell death compared to control and non-multidrug resistant cancer cells (HL60 MDR cells [1]; HL60 MDR, after treatment with cerulenin): greater amounts of cell death
HL60 MDR % Death (HL60 MDR cells [1]; 2.0 Hours): 13%
HL60 MDR % Death (HL60 MDR cells [1]; 24 Hours): 99.6%
cell death seen in microscopy images (HL60 MDR cells [3]): large numbers of cell death
HL60 % Death (HL60 cells [4]; 2.0 Hours): 11%
HL60 % Death (HL60 cells [4]; 24 Hours): 44%
L1210 % Death (L1210 cells): 27%
cell death compared to control and non-multidrug resistant cancer cells (L1210 DDP cells; L1210 DDP, after treatment with cerulenin): greater amounts of cell death
L1210 DDP % Death (L1210 DDP cells; 7.0 Hours): 14%
L1210 DDP % Death (L1210 DDP cells; 24 Hours): 92%
cell survival seen in microscopy images (HL60 cells [5]): large numbers of the cells survived
development of lethal cancers (B16F1 melanoma cells [6]; male mice injected with B16F1 cells treated with 25 ug/ml cerulenin 5.0 hrs): did not develop lethal cancers
tumor observation, Day 9 (B16F1 melanoma cells [6]; single mice (#7, #8, #9), 10^6 B16F1 cells treated w/25 ug/ml cerulenin 5.0 hrs, Day 9): no visible sign of tumors
tumor observation, Day 12 (B16F1 melanoma cells [6]; single mice (#7, #8, #9), 10^6 B16F1 cells treated w/25 ug/ml cerulenin 5.0 hrs, Day 12): no visible tumors
tumor observation, Day 13 (B16F1 melanoma cells [6]; single mice (#7, #8, #9), 10^6 B16F1 cells treated w/25 ug/ml cerulenin 5.0 hrs, Day 13): no visible tumors
B16F1 % Death (B16F1 melanoma cells [7]; Table 1; 25 ug/mL Cerulenin; 5.0 Hours): 61%
B16F1 % Death (B16F1 melanoma cells [7]; Table 1; 25 ug/mL Cerulenin; 24 Hours): 90%
B16F1 % Death (B16F1 melanoma cells [7]; Table 2; 25 ug/mL Cerulenin; 5.0 Hours): 67%
B16F1 % Death (B16F1 melanoma cells [7]; Table 2; 25 ug/mL Cerulenin; 24 Hours): 72%
B16F1 % Death (B16F1 melanoma cells [7]; Table 2; 24 Hours; 25 ug/mL Cerulenin): 89%
